The source of these data is US8962639B2, “Potassium channel modulators” (AbbVie Inc., priority 2009, dated 2015).

The target of this assay is T1, human KCNQ2 and KCNQ3 (Homo sapiens, UniProt O43525+O43526).
T1 construct: expressed in transfected cells; host or cells: HEK293
The assay can be described thus: KCNQ 2/3 channel activation, thallium flux FLIPR assay (BTC-AM dye) in HEK293 cells. The format is cell-based. The conditions noted are these: for Emax: HEK293, maximum response relative to response of retigabine at 10 μM set at 100%, read-out: Max response; for EC50: HEK293 cells stably expressing human KCNQ2 and KCNQ3, compound incubated 4 minutes, Tl+ flux fluorescence. The protocol: The following example describes the assay that can be used to identify compounds that activate KCNQ 2/3 channels.
HEK293 cells stably expressing human KCNQ2 and KCNQ3 were seeded in 96-well, black-walled, clear-bottomed, poly-D-lysine coated plates (BD Biosciences, Bedford, Mass.) at a density of 1×10^5 cells per well 24 hours before the assay. On the assay day, BTC-AM dye (Invitrogen, Carlsbad, Calif.) was loaded into the cells by replacing the cell culture medium with 100 μL/well of 4 μM dye in DPBS. Dye loading was allowed to proceed for 2 hours at room temperature and then cells were washed twice in 100 μL/well of assay buffer (in mM: 10 HEPES pH 7.3, 5 glucose, 140 Na-gluconate, 2.5 K-gluconate, 3.6 Ca-gluconate, 2 MgSO4, 0.1 Ouabain) to remove unloaded dye. Cells were incubated in 50 μL of assay buffer before loading onto a FLIPR system (Molecular Devices, Sunnyvale, Calif.). Various concentrations of compounds to be assayed were added to the cells in 50 μL of assay buffer and incubated for 4 minutes. The fluorescence signal was initiated by adding 100 μL of assay buffer containing 6 mM TlNO3 and 10 mM K2SO4. Fluors were excited using the 488-nm line of an argon laser and emission was filtered using a 540±30 nm bandpass filter. Fluorescent signals were recorded for 3 minutes. Responses over baseline values were plotted versus concentrations of test compounds to obtain an EC50 value. The maximum response for each test compound was determined relative to the response produced at 10 μM by retigabine. The maximum response of retigabine at 10 μM was set at 100%.

T1 sequence (O43526 whole entry): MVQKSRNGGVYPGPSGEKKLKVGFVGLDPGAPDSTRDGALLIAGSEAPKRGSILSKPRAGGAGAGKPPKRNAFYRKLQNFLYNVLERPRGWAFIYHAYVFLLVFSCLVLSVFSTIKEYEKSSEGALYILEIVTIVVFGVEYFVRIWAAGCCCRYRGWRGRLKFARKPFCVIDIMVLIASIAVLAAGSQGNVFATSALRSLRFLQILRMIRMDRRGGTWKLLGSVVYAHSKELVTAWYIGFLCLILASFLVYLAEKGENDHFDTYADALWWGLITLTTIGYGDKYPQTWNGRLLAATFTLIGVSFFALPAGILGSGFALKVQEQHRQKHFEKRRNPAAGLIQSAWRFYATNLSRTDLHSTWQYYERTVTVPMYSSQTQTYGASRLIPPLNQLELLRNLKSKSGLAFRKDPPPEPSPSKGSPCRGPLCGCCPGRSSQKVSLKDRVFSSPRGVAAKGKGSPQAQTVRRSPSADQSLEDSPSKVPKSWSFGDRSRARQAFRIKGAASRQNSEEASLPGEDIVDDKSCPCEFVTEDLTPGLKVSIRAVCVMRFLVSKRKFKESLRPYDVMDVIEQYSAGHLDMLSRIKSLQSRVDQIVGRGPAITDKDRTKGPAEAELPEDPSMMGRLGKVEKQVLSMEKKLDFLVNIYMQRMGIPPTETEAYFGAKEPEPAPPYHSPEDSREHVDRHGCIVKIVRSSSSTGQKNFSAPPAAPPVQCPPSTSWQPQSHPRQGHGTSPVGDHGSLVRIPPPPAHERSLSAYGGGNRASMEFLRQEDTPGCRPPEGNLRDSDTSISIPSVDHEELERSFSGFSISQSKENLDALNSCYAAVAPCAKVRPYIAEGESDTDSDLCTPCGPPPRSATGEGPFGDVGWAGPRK
T1 sequence (O43525 whole entry): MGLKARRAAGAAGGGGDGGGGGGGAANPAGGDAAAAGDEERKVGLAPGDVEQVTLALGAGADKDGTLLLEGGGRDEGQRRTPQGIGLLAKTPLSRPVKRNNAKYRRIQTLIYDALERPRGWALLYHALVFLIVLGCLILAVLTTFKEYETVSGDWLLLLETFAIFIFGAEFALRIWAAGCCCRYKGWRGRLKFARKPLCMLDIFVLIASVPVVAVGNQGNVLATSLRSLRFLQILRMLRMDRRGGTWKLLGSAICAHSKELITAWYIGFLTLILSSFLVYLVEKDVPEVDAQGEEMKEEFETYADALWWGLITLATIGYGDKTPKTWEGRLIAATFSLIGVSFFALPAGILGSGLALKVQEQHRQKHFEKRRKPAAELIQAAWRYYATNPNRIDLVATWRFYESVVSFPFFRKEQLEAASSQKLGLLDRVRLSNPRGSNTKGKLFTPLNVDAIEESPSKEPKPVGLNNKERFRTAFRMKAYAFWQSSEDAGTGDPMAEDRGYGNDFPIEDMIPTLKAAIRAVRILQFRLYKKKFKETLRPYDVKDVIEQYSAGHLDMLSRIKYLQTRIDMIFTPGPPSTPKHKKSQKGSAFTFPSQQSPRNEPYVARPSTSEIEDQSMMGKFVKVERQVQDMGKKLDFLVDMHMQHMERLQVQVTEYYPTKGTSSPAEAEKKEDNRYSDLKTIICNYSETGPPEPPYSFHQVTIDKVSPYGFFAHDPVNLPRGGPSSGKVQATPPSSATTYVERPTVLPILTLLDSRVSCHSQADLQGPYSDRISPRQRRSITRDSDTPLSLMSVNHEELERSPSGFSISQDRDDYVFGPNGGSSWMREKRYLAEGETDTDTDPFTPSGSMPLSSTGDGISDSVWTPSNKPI

`O=C(CC1CC2CCC1C2)Nn1cnc2ccccc2c1=O` (racemic) [Example 10, (±)-exo-2-bicyclo[2.2.1]hept-2-yl-N-(4-oxoquinazolin-3(4H)-yl)acetamide]: the Emax stood at 131% and the midpoint of the response, the EC50, lay at 4950 nM.

With `CC(C)c1nc2ccccc2c(=O)n1NC(=O)CC1CC2CCC1C2` (racemic) [Example 11, (±)-exo-2-bicyclo[2.2.1]hept-2-yl-N-(2-isopropyl-4-oxoquinazolin-3(4H)-yl)acetamide], the midpoint of the response, the EC50, lay at 90.6 nM. The Max response (maximum response relative to response of retigabine at 10 μM set at 100%) was 175%.

Take `O=C(CC1CC2CCC1C2)Nn1c(-c2ccccc2)nc2ccccc2c1=O` (racemic) [Example 12, (±)-exo-2-bicyclo[2.2.1]hept-2-yl-N-(4-oxo-2-phenylquinazolin-3(4H)-yl)acetamide]: the Emax stood at 176% and the EC50 was determined as 535 nM.

For the molecule `CC(C)c1nc2ccccc2c(=O)n1NC(=O)CC1CC2C=CC1C2` (racemic) [Example 18, (±)-endo-2-bicyclo[2.2.1]hept-5-en-2-yl-N-(2-isopropyl-4-oxoquinazolin-3(4H)-yl)acetamide], the Emax stood at 163% and it took 747 nM to reach a half-maximal effect (EC50).

Take `O=C(C[C@@H]1C[C@@H]2C=C[C@H]1C2)Nn1c(-c2ccccc2)nc2ccccc2c1=O` (racemic) [Example 19, (±)-endo-2-bicyclo[2.2.1]hept-5-en-2-yl-N-(4-oxo-2-phenylquinazolin-3(4H)-yl)acetamide]: the Emax came out at 130% and the EC50 was 2280 nM.

For the molecule `CC(C)c1nc2ccccc2c(=O)n1NC(=O)[C@@H]1C[C@@H]2CC[C@H]1C2` (racemic) [Example 22, (±)-endo-N-(2-isopropyl-4-oxoquinazolin-3(4H)-yl)bicyclo[2.2.1]heptane-2-carboxamide], the Emax was 124% and a half-maximal effect (EC50) was put at 404 nM.

With `O=C(Nn1c(-c2ccccc2)nc2ccccc2c1=O)C1CC2CCC1C2` (racemic) [Example 23, (±)-endo-N-(4-oxo-2-phenylquinazolin-3(4H)-yl)bicyclo[2.2.1]heptane-2-carboxamide], the Emax stood at 34.3% and a half-maximal response (EC50) required 540 nM.

Turning to `CCc1nc2sccc2c(=O)n1NC(=O)CC1CC2CCC1C2` (racemic) [Example 24, (±)-exo-2-bicyclo[2.2.1]hept-2-yl-N-(2-ethyl-4-oxothieno[2,3-d]pyrimidin-3(4H)-yl)acetamide], the Emax is 158% and the EC50 was 1130 nM.

With `CC(C)c1nc2ccccc2c(=O)n1NC(=O)[C@@H]1C[C@@H]2C=C[C@H]1C2` (racemic) [Example 31, (±)-(endo)-N-(2-isopropyl-4-oxoquinazolin-3(4H)-yl)bicyclo[2.2.1]hept-5-ene-2-carboxamide], the Emax worked out at 140% and it took 415 nM to reach a half-maximal effect (EC50).

Turning to `CC(C)c1nc2ccccc2c(=O)n1NC(=O)[C@H]1C[C@@H]2C=C[C@H]1C2` (racemic) [Example 32, (±)-(exo)-N-(2-isopropyl-4-oxoquinazolin-3(4H)-yl)bicyclo[2.2.1]hept-5-ene-2-carboxamide], the Emax was found to be 99.2% and it took 2230 nM to reach a half-maximal effect (EC50).

With `O=C(Nn1c(-c2ccccc2)nc2ccccc2c1=O)[C@@H]1C[C@@H]2C=C[C@H]1C2` (racemic) [Example 33, (±)-(endo)-N-(4-oxo-2-phenylquinazolin-3(4H)-yl)bicyclo[2.2.1]hept-5-ene-2-carboxamide], the Emax was found to be 65.4% and it took 840 nM to reach a half-maximal effect (EC50).

For `O=C(Nn1c(-c2ccccc2)nc2ccccc2c1=O)[C@H]1C[C@@H]2C=C[C@H]1C2` (racemic) [Example 34, (±)-(exo)-N-(4-oxo-2-phenylquinazolin-3(4 H)-yl)bicyclo[2.2.1]hept-5-ene-2-carboxamide], the Emax came out at 4.46% and the EC50 worked out at 17300 nM.

In general, EC50 refers to the concentration giving half of the maximal effect. A higher EC50 goes with weaker potency.
